US9862713B2, “Substituted bicyclic heteroaryl compounds as RXR agonists” (CONNEXIOS LIFE SCIENCES PVT. LTD., priority 2014, dated 2018)

tested on: hRXR α, β, or γ; experiment: Transactivation assay (RARE-Luc dual luciferase reporter in HEK-293 cells), activity relative to LG268; assay type: cell-based, human; conditions: compound at 1 µM, 24 h; luciferase activity expressed relative to LG268
Experimental: HEK-293 cells (ATCC) were seeded one day prior to transfection. For assessing EC50 of activation of RXR isoforms 2 μg of hRXR α, β, or γ (OriGENE, USA) over-expressing vector, 1 μg of plasmid expressing firefly luciferase under RARE element (RARE-Luc) and 25 ng of renilla luciferase vector (QIAGEN, USA) were co-transfected using lipofectamine reagent. Post 24 h of transfection, cells were treated with different concentrations of RXR agonists (100 nM, 300 nM and 1 uM) for 24 h followed by estimation of luciferase activity using Dual Luciferase Reporter Assay System (Promega). Luciferase activity was normalized to that of renilla luciferase. The activities of the RXR compounds were expressed relative to LG268, a known RXR agonist.

Row | SMILES | Activity at 1 µM
1 | C=C(c1ccc(C(=O)O)cc1)c1sc2c(c1C)C(C)(C)CCC2(C)C [Compound 1, 4-[1-(3,4,4,7,7-Pentamethyl-4,5,6,7-tetrahydro-1-benzothiophen-2-yl)ethenyl]benzoic acid] | ***** (>1)
2 | Cc1c(C2(c3ccc(C(=O)O)cc3)CC2)sc2c1C(C)(C)CCC2(C)C [Compound 2, 4-[1-(3,4,4,7,7-pentamethyl-4,5,6,7-tetrahydro-1-benzothiophen-2-yl)cyclopropyl]benzoic acid] | ***** (>1)
3 | Cc1c(/C(=N/O)c2ccc(C(=O)O)cc2)sc2c1C(C)(C)CCC2(C)C [Compound 3, 4-[(E)-(Hydroxyimino) (3,4,4,7,7-pentamethyl-4,5,6,7-tetrahydro-1-benzothiophen-2-yl)methyl]benzoic acid] | ***** (>1)
4 | CO/N=C(\c1ccc(C(=O)O)cc1)c1sc2c(c1C)C(C)(C)CCC2(C)C [Compound 4, 4-[(E,Z)-(Methoxyimino) (3,4,4,7,7-pentamethyl-4,5,6,7-tetrahydro-1-benzothiophen-2-yl)methyl]benzoic acid] | **** (>0.9 to <1)
5 | Cc1c(C(=O)c2ccc(C(=O)O)cn2)sc2c1C(C)(C)CCC2(C)C [Compound 5, 6-[(3,4,4,7,7-Pentamethyl-4,5,6,7-tetrahydro-1-benzothiophen-2-yl)carbonyl]pyridine-3-carboxylic acid] | ** (>0.7 and <0.8)
6 | C=C(c1ccc(C(=O)O)cn1)c1sc2c(c1C)C(C)(C)CCC2(C)C [Compound 6, 6-[1-(3,4,4,7,7-Pentamethyl-4,5,6,7-tetrahydro-1-benzothiophen-2-yl)ethenyl]pyridine-3-carboxylic acid] | *** (>0.8 and <0.9)
7 | Cc1c(C2(c3ccc(C(=O)O)cn3)CC2)sc2c1C(C)(C)CCC2(C)C [Compound 7, 6-[1-(3,4,4,7,7-Pentamethyl-4,5,6,7-tetrahydro-1-benzothiophen-2-yl)cyclopropyl]pyridine-3-carboxylic acid] | ***** (>1)
8 | Cc1c(N(C)c2ccc(C(=O)O)cc2)sc2c1C(C)(C)CCC2(C)C [Compound 8, 4-[Methyl(3,4,4,7,7-pentamethyl-4,5,6,7-tetrahydro-1-benzothiophen-2-yl)amino]benzoic acid] | ***** (>1)
9 | CCN(c1ccc(C(=O)O)cc1)c1sc2c(c1C)C(C)(C)CCC2(C)C [Compound 9, 4-[Ethyl(3,4,4,7,7-pentamethyl-4,5,6,7-tetrahydro-1-benzothiophen-2-yl)amino]benzoic acid] | *** (>0.8 and <0.9)
10 | Cc1c(N(c2ccc(C(=O)O)cc2)C2CC2)sc2c1C(C)(C)CCC2(C)C [Compound 10, 4-[Cyclopropyl(3,4,4,7,7-pentamethyl-4,5,6,7-tetrahydro-1-benzothiophen-2-yl)amino]benzoic acid] | ***** (>1)
11 | Cc1c(N(CC2CC2)c2ccc(C(=O)O)cc2)sc2c1C(C)(C)CCC2(C)C [Compound 11, 4-[(Cyclopropylmethyl) (3,4,4,7,7-pentamethyl-4,5,6,7-tetrahydro-1-benzothiophen-2-yl)amino]benzoic acid] | **** (>0.9 to <1)
12 | Cc1c(N(c2ccc(C(=O)O)cc2)C(C)C)sc2c1C(C)(C)CCC2(C)C [Compound 13, 4-[(3,4,4,7,7-Pentamethyl-4,5,6,7-tetrahydro-1-benzothiophen-2-yl) (propan-2-yl)amino]benzoic acid] | ** (>0.7 and <0.8)
13 | Cc1c(N(c2ccc(C(=O)O)cc2)S(C)(=O)=O)sc2c1C(C)(C)CCC2(C)C [Compound 14, 4-[(Methylsulfonyl) (3,4,4,7,7-pentamethyl-4,5,6,7-tetrahydro-1-benzothiophen-2-yl)amino]benzoic acid] | **** (>0.9 to <1)
14 | COc1ccc(/C=C/C(=O)O)cc1-c1sc2c(c1C)C(C)(C)CCC2(C)C [Compound 15, (2E)-3-[4-Methoxy-3-(3,4,4,7,7-pentamethyl-4,5,6,7-tetrahydro-1-benzothiophen-2-yl)phenyl]prop-2-enoic acid] | ** (>0.7 and <0.8)
15 | COc1ccc(C2CC2C(=O)O)cc1-c1sc2c(c1C)C(C)(C)CCC2(C)C (stereo not drawn) [Compound 16, 2-[4-Methoxy-3-(3,4,4,7,7-pentamethyl-4,5,6,7-tetrahydro-1-benzothiophen-2-yl)phenyl]cyclopropanecarboxylic acid] | * (<0.7)
16 | Cc1c(N(C)c2ccc(C(=O)O)cn2)sc2c1C(C)(C)CCC2(C)C [Compound 17, 6-[Methyl(3,4,4,7,7-pentamethyl-4,5,6,7-tetrahydro-1-benzothiophen-2-yl)amino]pyridine-3-carboxylic acid] | ***** (>1)
17 | CCN(c1ccc(C(=O)O)cn1)c1sc2c(c1C)C(C)(C)CCC2(C)C [Compound 18, 6-[Ethyl(3,4,4,7,7-pentamethyl-4,5,6,7-tetrahydro-1-benzothiophen-2-yl)amino]pyridine-3-carboxylic acid] | ***** (>1)

Row | SMILES | Activity at 1 µM
18 | Cc1c(N(c2ccc(C(=O)O)cn2)C2CC2)sc2c1C(C)(C)CCC2(C)C [Compound 19, 6-[Cyclopropyl(3,4,4,7,7-pentamethyl-4,5,6,7-tetrahydro-1-benzothiophen-2-yl)amino]pyridine-3-carboxylic acid] | ***** (>1)
19 | Cc1c(N(CC2CC2)c2ccc(C(=O)O)cn2)sc2c1C(C)(C)CCC2(C)C [Compound 20, 6-[(Cyclopropylmethyl) (3,4,4,7,7-pentamethyl-4,5,6,7-tetrahydro-1-benzothiophen-2-yl)amino]pyridine-3-carboxylic acid] | ***** (>1)
20 | Cc1c(N(c2ccc(C(=O)O)cn2)C(C)C)sc2c1C(C)(C)CCC2(C)C [Compound 21, 6-[(3,4,4,7,7-Pentamethyl-4,5,6,7-tetrahydro-1-benzothiophen-2-yl) (propan-2-yl)amino]pyridine-3-carboxylic acid] | ***** (>1)
21 | Cc1c(N(c2ccc(C(=O)O)cn2)S(C)(=O)=O)sc2c1C(C)(C)CCC2(C)C [Compound 22, 6-[(Methylsulfonyl) (3,4,4,7,7-pentamethyl-4,5,6,7-tetrahydro-1-benzothiophen-2-yl)amino]pyridine-3-carboxylic acid] | ***** (>1)
22 | Cc1c(N(C)c2ncc(C(=O)O)cn2)sc2c1C(C)(C)CCC2(C)C [Compound 23, 2-[Methyl(3,4,4,7,7-pentamethyl-4,5,6,7-tetrahydro-1-benzothiophen-2-yl)amino]pyrimidine-5-carboxylic acid] | *** (>0.8 and <0.9)
23 | Cc1c(N(c2ncc(C(=O)O)cn2)C2CC2)sc2c1C(C)(C)CCC2(C)C [Compound 24, 2-[Cyclopropyl(3,4,4,7,7-pentamethyl-4,5,6,7-tetrahydro-1-benzothiophen-2-yl)amino]pyrimidine-5-carboxylic acid] | *** (>0.8 and <0.9)
24 | Cc1c(NC(=O)c2ccc(C(=O)O)cc2)sc2c1C(C)(C)CCC2(C)C [Compound 25, 4-[(3,4,4,7,7-Pentamethyl-4,5,6,7-tetrahydro-1-benzothiophen-2-yl)carbamoyl]benzoic acid] | * (<0.7)
25 | Cc1c(N(C)c2ccc(C(=O)O)cn2)sc2c1C(C)(C)CCC2 [Compound 26, 6-[Methyl(3,4,4-trimethyl-4,5,6,7-tetrahydro-1-benzothiophen-2-yl)amino]pyridine-3-carboxylic acid] | * (<0.7)
26 | CCN(c1ccc(C(=O)O)cc1)c1cc2c(s1)C(C)(C)CCC2(C)C [Compound 27, 4-[Ethyl(4,4,7,7-tetramethyl-4,5,6,7-tetrahydro-1-benzothiophen-2-yl)amino]benzoic acid] | ***** (>1)
27 | Cc1c(-n2nnc3cc(C(=O)O)ccc32)sc2c1C(C)(C)CCC2(C)C [Compound 28, 1-(3,4,4,7,7-Pentamethyl-4,5,6,7-tetrahydro-1-benzothiophen-2-yl)-1H-benzotriazole-5-carboxylic acid] | * (<0.7)
28 | Cc1c(/C=C/c2ccc(C(=O)O)cc2)sc2c1C(C)(C)CCC2(C)C [Compound 29, 4-[(E)-2-(3,4,4,7,7-Pentamethyl-4,5,6,7-tetrahydro-1-benzothiophen-2-yl)ethenyl]benzoic acid] | ***** (>1)
29 | Cc1c(/C=C\c2ccc(C(=O)O)cc2)sc2c1C(C)(C)CCC2(C)C [Compound 30, 4-[(Z)-2-(3,4,4,7,7-Pentamethyl-4,5,6,7-tetrahydro-1-benzothiophen-2-yl)ethenyl]benzoic acid] | ***** (>1)
30 | Cc1c(C2CC2c2ccc(C(=O)O)cc2)sc2c1C(C)(C)CCC2(C)C (stereo not drawn) [Compound 31, 4-[2-(3,4,4,7,7-Pentamethyl-4,5,6,7-tetrahydro-1-benzothiophen-2-yl)cyclopropyl]benzoic acid] | ** (>0.7 and <0.8)
31 | CCn1c(-c2ccc(C(=O)O)cc2)ccc1-c1sc2c(c1C)C(C)(C)CCC2(C)C [Compound 32, 4-[1-Ethyl-5-(3,4,4,7,7-pentamethyl-4,5,6,7-tetrahydro-1-benzothiophen-2-yl)-1H-pyrrol-2-yl]benzoic acid] | * (<0.7)
32 | CN(c1ccc(C(=O)O)cc1)c1nc2c(s1)C(C)(C)CCC2(C)C [Compound 33, 4-[Methyl(4,4,7,7-tetramethyl-4,5,6,7-tetrahydro-1,3-benzothiazol-2-yl)amino]benzoic acid] | *** (>0.8 and <0.9)
33 | CN(c1ccc(C(=O)O)cc1)c1nc2c(s1)C(C)(C)C=CC2(C)C [Compound 34, 4-[Methyl(4,4,7,7-tetramethyl-4,7-dihydro-1,3-benzothiazol-2-yl)amino]benzoic acid] | ** (>0.7 and <0.8)
